Results as given in US20260216170A1, “TETRAHYDROISOQUINOLINE HETEROBIFUNCTIONAL BCL-XL DEGRADERS” (Treeline Biosciences, Inc., priority 2023, published 2026).

Molecular target: T1, Human BCL-XL protein (N-terminal HiBiT tagged BCL-XL expressed in HT1080 cells) (Homo sapiens, UniProt Q07817)
T1 construct: expressed in transfected cells; host or cells: HT-1080 (ATCC CCL-121), stably transduced with lentivirus pLV-UBC-N-HiBiT-BCL-XL-PGK-puro and selected with puromycin
Assay: HiBiT Based Degradation Assay
Type: cell-based
Conditions: 24 hours incubation; for DC50: BCL-XL degradation, HT1080 cells expressing N-HiBiT-BCL-XL, normalized with DMSO control, geometric mean for multiple data points, read-out: EC50 (24 h); for Ymin (24 h): bottom of BCL-XL degradation curve (remaining HiBiT-BCL-XL signal vs DMSO control), HT1080 cells
In short: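 BCL-XL degradation was read as Nano-Glo HiBiT lytic luminescence relative to DMSO after a 24 h compound treatment of HT1080 cells carrying stably integrated N-HiBiT-BCL-XL. EC50 values come from four-parameter logistic curves, with the hook-curve minimum fixed as bottom, and are geometric means where tested repeatedly.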

T1 sequence (Q07817 whole entry): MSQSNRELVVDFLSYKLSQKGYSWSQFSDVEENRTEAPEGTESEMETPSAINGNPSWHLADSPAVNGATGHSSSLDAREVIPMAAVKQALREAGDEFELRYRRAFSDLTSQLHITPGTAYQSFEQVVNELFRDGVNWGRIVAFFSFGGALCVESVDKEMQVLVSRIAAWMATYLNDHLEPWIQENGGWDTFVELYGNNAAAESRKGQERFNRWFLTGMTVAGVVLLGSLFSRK

DC50 [nM] | Ymin (24 h) | SMILES
10 to 100 | B (30% ≤ Ymin < 50%) | C[C@H](COc1ccc(-c2ccc(N3CCc4cccc(C(=O)Nc5nc6ccccc6s5)c4C3)nc2C(=O)O)c(C(F)(F)F)c1)CC1CCN(CC(=O)Nc2ccc3c(C4CCC(=O)NC4=O)nn(C)c3c2)CC1 (single isomer, unassigned) [Compound 130b]
10 to 100 | C (50% ≤ Ymin < 70%) | Cn1nc(C2CCC(=O)NC2=O)c2ccc(NC(=O)CN3CCC(CCCOc4cccc(-c5ccc(N6CCc7cccc(C(=O)Nc8nc9ccccc9s8)c7C6)nc5C(=O)O)c4C(F)(F)F)CC3)nc21 (centres unmarked) [Compound 145]
< 10 | A (Ymin < 30%) | Cc1cc(OC2CC3(CCN(CC(=O)Nc4ccc5c(C6CCC(=O)NC6=O)nn(C)c5c4F)CC3)C2)ccc1-c1ccc(N2CCc3ccnc(C(=O)Nc4nc5ccccc5s4)c3C2)nc1C(=O)O (centres unmarked) [Compound 205]
< 10 | B (30% ≤ Ymin < 50%) | Cc1c(OC[C@@H]2C[C@@H]2CC2CCN(CC(=O)Nc3ccc4c(C5CCC(=O)NC5=O)nn(C)c4c3)CC2)cccc1-c1ccc(N2CCc3cccc(C(=O)Nc4nc5ccccc5s4)c3C2)nc1C(=O)O (single isomer, unassigned) [Compound 1004c]
< 10 | A (Ymin < 30%) | Cn1nc(C2CCC(=O)NC2=O)c2ccc(NC(=O)CN3CCC4(CC3)CC(Oc3ccc(-c5ccc(N6CCc7cccc(C(=O)Nc8nc9ccccc9s8)c7C6)nc5C(=O)O)c(C(F)(F)F)c3)C4)cc21 (centres unmarked) [Compound 155, 6-(8-(benzo[d]thiazol-2-ylcarbamoyl)-3,4-dihydroisoquinolin-2(1H)-yl)-3-(4-((7-(2-((3-(2,6-dioxopiperidin-3-yl)-1-methyl-1H-indazol-6-yl)amino)-2-oxoethyl)-7-azaspiro[3.5]nonan-2-yl)oxy)-2-(trifluoromethyl)phenyl)picolinic acid]
10 to 100 | B (30% ≤ Ymin < 50%) | C[C@@H](COc1ccc(-c2ccc(N3CCc4cccc(C(=O)Nc5nc6ccccc6s5)c4C3)nc2C(=O)O)c(C(F)(F)F)c1)CC1CCN(CC(=O)Nc2ccc3c(C4CCC(=O)NC4=O)nn(C)c3c2)CC1 (single isomer, unassigned) [Compound 130a]
10 to 100 | A (Ymin < 30%) | COc1c(NC(=O)CN2CC[C@H](CCCOc3ccc(-c4ccc(N5CCc6cccc(C(=O)Nc7nc8ccccc8s7)c6C5)nc4C(=O)O)c(C)c3)C[C@@H]2C)ccc2c(C3CCC(=O)NC3=O)nn(C)c12 (some centres unmarked) [Compound 210b]
< 10 | A (Ymin < 30%) | Cc1cc(NCCCC2CCN(CC(=O)Nc3ccc4c(C5CCC(=O)NC5=O)nn(C)c4c3)CC2)ccc1-c1ccc(N2CCc3cccc(C(=O)Nc4nc5ccccc5s4)c3C2)nc1C(=O)O (centres unmarked) [Compound 218]
10 to 100 | B (30% ≤ Ymin < 50%) | Cc1cc(O[C@H](C)CCC2CCN(CC(=O)Nc3ccc4c(C5CCC(=O)NC5=O)nn(C)c4c3)CC2)ccc1-c1ccc(N2CCc3ccnc(C(=O)Nc4nc5ccccc5s4)c3C2)nc1C(=O)O (single isomer, unassigned) [Compound 133a]

SMILES | DC50 [nM] | Ymin (24 h)
Cc1c(OCCC[C@H]2[C@@H]3C[C@H]2CN(CC(=O)Nc2ccc4c(C5CCC(=O)NC5=O)nn(C)c4c2)C3)cccc1-c1ccc(N2CCc3cccc(C(=O)Nc4nc5ccccc5s4)c3C2)nc1C(=O)O (some centres unmarked) [Compound 176a] | 10 to 100 | C (50% ≤ Ymin < 70%)
